This note sets out measurements from patent US20060172958A1, “Phospholipid scramblase 3” (priority 2003, published 2006).

The subject of assay [1] is HEK293 cells. The assay is described as follows: UV-induced cytochrome c release, subcellular fractionation and Western blot. The class given is cell-based. The protocol: Subcellular fractionation was performed by differential centrifugation. In brief, […] were incubated in buffer containing 300 mM sucrose, 10 mM Tris (pH 7.5), 5 mM EDTA, 0.1% BSA and 1 mM PMSF protease inhibitor for 5 min on ice. Cells were disrupted by passage through a 25 G needle or dounced for 10 strokes, and then were centrifuged at 1000×g for 5 minutes, 10,000×g for 10 minutes, and 30,000×g for 60 minutes, for collection of intact cells/nuclei, crude mitochondria and microsomes, respectively. The final supernatants were used as cytosols. The mitochondria and the cytosolic fractions were analyzed for cytochrome c release with Western blot.
The kinase that phosphorylates PLS3 was then sought. Based on the observation that PLS1 is phosphorylated by […], we studied whether PLS3 is the mitochondrial substrate of PKC-δ. It was first reconfirmed that PKC-δ is essential for UV-induced apoptosis by blocking PKC-δ with a PKC-δ inhibitor, rottlerin, in our system. The HEK293 cells were fractionated and the isolated mitochondria and cytosols were analyzed for cytochrome c release by Western blot. This study confirmed that cytochrome c was released to cytosol after UV irradiation, and this release was inhibited by rottlerin (FIG. 20b). […]

Assay [2] has as its system mouse liver mitochondria. Description: Cardiolipin transfer assay (NAO fluorescence). The format is biochemical. Conditions: 30 μM NAO, vs buffer or BSA control. The text has this: Cardiolipin was then investigated since cardiolipin is a mitochondrion-specific phospholipid and is potentially more critical in the process of apoptosis. Because radioactive cardiolipin is not commercially available, NAO was used to quantify cardiolipin in the recipient mitochondria. NAO binds cardiolipin specifically without interference by other phospholipids with a stoichiometry of 1 to 1 or 2 to 1. To achieve maximal NAO saturation, the recipient mitochondria were permeablized and fixed with formaldehyde. A dose titration of NAO was then performed. The red fluorescence achieved a plateau when the NAO concentrations were above 20 μM as reported (Garcia Fernandez et al. 2000). The concentration of 30 μM was thus chosen to determine the total amount of cardiolipin after in vitro cardiolipin transfer assay. […]
Phospholipid transfer assay was modified from Koumanov et al. (Koumanov and Infante 1986). […] Mitochondria were then washed five times with mitochondrial preparation buffer to remove free liposomes and counted by scintillation counter for ^14C activity. For cardiolipin transfer assays, total amounts of cardiolipin were quantified by specific fluorescence with NAO dye. NAO (30 μM) was added to recipient mitochondria, and fluorescence intensity was measured at 590±35 nm by fluorescence microplate reader.

In assay [3] the test system is HeLa-PLS3 cells. Description: TUNEL apoptosis assay with flow cytometry. The format is cell-based. Conditions: 200 nM PMA, 2 hours. The protocol: (§1) Apoptotic assays were performed with annexinV-PE (BD-PharMingen) per manufacturer's protocol. The TUNEL assay (terminal deoxynucleotidyltransferase-mediated dUTP-biotin nick end labeling) was performed according to the manufacturer's protocol (Roche, Switzerland).
(§2) If PLS3 is a direct downstream effector of PKC-δ in the PKC-δ-induced apoptotic pathway, then overexpression of PLS3 might enhance apoptosis induced by PKC-δ activation. HeLa-PLS3 were incubated with phorbol ester PMA, and analyzed for apoptosis with TUNEL assay and flow cytometry.

For assay [4], the system named is HeLa-control cells. The assay is described as follows: TUNEL apoptosis assay with flow cytometry. The class given is cell-based. Conditions: 200 nM PMA, 2 hours. The protocol:
as §1, §2

Assay [5] relates to 293-vector cells. Description: Mitochondrial potential by Rhodamine 123 flow cytometry. The class given is cell-based. The conditions noted are these: antimycin A for 6 h. How it is done:
FIG. 14. Overexpression of mutant PLS3 reduces mitochondrial mass, potential, and cytochrome c and CL content. […] C. […] The blot was re-probed with antibodies to VDAC and tubulin for controls. […] Error bars, SDs from five independent measurements. E. Quantitative PCR analysis of mitochondrial NADH dehydrogenase in 400 ng of whole cell genomic DNA. […] The crossing points (in cycle numbers) of the three cells are indicated.

With `CC(=O)c1c(O)c(C)c(O)c(Cc2c(O)c3c(c(C(=O)/C=C/c4ccccc4)c2O)OC(C)(C)C=C3)c1O` [rottlerin], the “amount of PKC-δ translocated to mitochondria” value in assay [1] (UV plus rottlerin, washed mitochondria, 100 nM PMA, cytochrome c release) is “decreased”. The “cytochrome c release to cytosol after UV irradiation” value in assay [1] (rottlerin 10 μM, harvested 4 hours after UV) was “inhibited”. Turning to “PLS3: Recombinant phospholipid scramblase 3 protein; purified PLS3β in transfer assay, His-tagged PLS3 in kinase assay”, the “increase of total amount of cardiolipin in recipient mitochondria” value in assay [2] is listed as 35%. On to `CCCCCCCCCCCCCC(=O)O[C@@H]1[C@@H](C)[C@@]2(O)[C@@H](C=C(CO)C[C@]3(O)C(=O)C(C)=C[C@@H]23)[C@@H]2C(C)(C)[C@]12OC(C)=O` [PMA], for which the results for the “apoptosis (TUNEL)” value in assay [3] and in assay [4] were “shifted the curve to right” and “did not induce any apoptosis”, respectively.

For the compound antimycin A, in assay [5], the “mitochondrial potential (Rhodamine 123)” value is on record as “decrease of mitochondrial potential”.
